Assay results as given in PubChem BioAssay (NCI).
“And” between values parts separate entries of the source, which are not always exact repeats. Equal values may be shown once.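 Each compound was tested at five concentrations against cells in 96-well plates for 48 hours. The concentration for 50% growth inhibition is given as GI50. Definition used: TGI = concentration required for complete inhibition of growth.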

Assays:
Assay in all cases: DTP human tumour cell line panel, 48 h
TK-10 renal = tested on: TK-10 renal
SN12C renal = tested on: SN12C renal
NCI/ADR-RES ovarian = tested on: NCI/ADR-RES ovarian
UACC-62 melanoma = tested on: UACC-62 melanoma
U251 CNS = tested on: U251 CNS
LOX IMVI melanoma = tested on: LOX IMVI melanoma
UO-31 renal = tested on: UO-31 renal
SK-MEL-5 melanoma = tested on: SK-MEL-5 melanoma
HT29 colon = tested on: HT29 colon
SR leukemia = tested on: SR leukemia

| Structure (SMILES) | TGI (TK-10 renal) [µM] | TGI (SN12C renal) [µM] | TGI (NCI/ADR-RES ovarian) [µM] | TGI (UACC-62 melanoma) [µM] | TGI (U251 CNS) | TGI (LOX IMVI melanoma) [µM] | TGI (UO-31 renal) [µM] | TGI (SK-MEL-5 melanoma) [µM] | TGI (HT29 colon) [µM] | TGI (SR leukemia) [µM] | GI50 (U251 CNS) | GI50 (UO-31 renal) | GI50 (NCI/ADR-RES ovarian) [µM] |
| --- | --- | --- | --- | --- | --- | --- | --- | --- | --- | --- | --- | --- | --- |
| CCOC(=O)c1nnsc1NN | > 100 | > 100 | > 100 | > 100 | > 100 µM | > 100 | > 100 | > 100 | > 100 | – | – | – | – |
| COC1=C(C)C(=O)c2c(c(COC(N)=O)c3n2CC(OC(C)=O)C3OC(C)=O)C1=O (stereo not drawn) | 1.56 | 1.09 | 0.979 | 0.245 | 0.789 µM | 1.06 | 0.49 | 0.392 | 0.25 | 0.0442 | – | – | – |
| C[C@H]1SC(c2ccc(Cl)cc2Cl)N(NC(=O)c2ccncc2)C1=O (stereo partly drawn) | – | > 100 | > 100 | > 100 | > 100 µM | – | 96.1 | 37 | > 100 | > 100 | – | – | – |
| COc1ccc(NC(=S)NC(=O)c2ccc3c(c2)Sc2ccccc2O3)c([N+](=O)[O-])c1 | 36.9 | > 100 | > 100 | > 100 | 60.6 µM | > 100 | 57.4 | > 100 | > 100 | > 100 | – | – | – |
| CC1(C)[C@H]2CC[C@@]13C(=O)N1C(=O)O[C@@H]([C@H]1Cl)C(Cl)(COCc1ccccc1)C(=O)OCCO[C@H]3C2 (stereo partly drawn) | – | – | > 100 | > 100 | > 100 µM | > 100 | > 100 | > 100 | > 100 | > 100 | – | – | – |
| C\C(=N/N=C1/C(=C\N(C)C)C(=O)NC(=O)N1C)c1ccc(Cl)cc1 | > 100 | > 100 | > 100 | > 100 | > 100 µM | > 100 | > 100 | > 100 | > 100 | – | – | – | – |
| COC(=O)C1=Nc2c(C)nn(-c3ccccc3)c2N=C(c2ccccc2)C1 | > 10 | > 10 | > 10 | > 10 | > 10 µM | > 10 | – | > 10 | > 10 | > 10 | – | – | – |
| COC(=O)/C(C#N)=C(/NCCN)Nc1ccccc1 | > 100 | > 100 | > 100 | – | > 100 µM | > 100 | > 100 | > 100 | > 100 | > 100 | – | – | – |
| COc1cc(NC(C)=O)ccc1C(=O)NN1C(=O)/C(=C/c2ccco2)N=C1c1ccccc1 | – | > 50 | > 50 | > 50 | – | > 50 | > 50 | > 50 | > 50 | > 50 | – | – | – |
| CC(=O)OC1CCC2C3CCc4c(C)ccc(OS(=O)(=O)c5ccccc5)c4C3CCC12C (stereo not drawn) | > 100 | > 100 | – | > 100 | > 100 µM | > 100 | 50.1 | 23.1 | > 100 | > 100 | – | – | – |
| CCC(C(=O)C(=O)OC)P1(=O)OC(C)(C)CN1C(C)(C)C (stereo not drawn) | > 100 | – | > 100 | 60.4 | > 100 µM | > 100 | > 100 | > 100 | > 100 | > 100 | – | – | – |
| Cc1cnc2c(c1)C(=O)C1=C(C2=O)C2OC(=O)CC2OC1(C)C (stereo not drawn) | 1.95 | 0.318 | – | 0.351 | 0.519 µM | – | 1.26 | 0.997 | 1.25 | 0.29 | – | – | – |
| O=C(C(Cl)=C(N1CCOCC1)N1CCOCC1)C(Cl)Cl | > 100 | > 100 | > 100 | > 100 | – | > 100 | > 100 | > 100 | > 100 | > 100 | – | – | – |
| C=C1c2nc3ccccc3n2C=C(c2ccc(Cl)cc2)N1c1ccc(OC)cc1 | 13.2 | 60 | 14 | > 100 | 25.4 µM | > 100 | 19.4 | 46.2 | – | > 100 | – | – | – |
| CCCSc1nc(-c2ccc(OC)cc2)c(C#N)c(=O)n1C1OC(COC(C)=O)C(OC(C)=O)C(OC(C)=O)C1OC(C)=O (stereo not drawn) | – | – | – | > 100 | > 100 µM and 34.2 µM | – | > 100 | – | > 100 | > 100 | > 100 µM and 17.9 µM | > 100 µM and 36.9 µM | – |
| CC(=O)OC1C(COC(=O)c2ccccc2)OC(Nc2ncc(-c3ccc(Br)cc3)s2)C(OC(=O)c2ccccc2)C1OC(=O)c1ccccc1 (stereo not drawn) | > 100 | > 100 | – | > 100 | > 100 µM | > 100 | > 100 | > 100 | > 100 | > 100 | – | – | – |
| COc1cc2c(cc1Cc1c(F)cccc1Cl)nc(-c1c(F)cccc1Cl)n2Cc1c(F)cccc1Cl | > 100 | > 100 | > 100 | > 100 | > 100 µM | – | > 100 | > 100 | > 100 | > 100 | – | – | – |

| Structure (SMILES) | TGI (TK-10 renal) [µM] | TGI (SN12C renal) [µM] | TGI (NCI/ADR-RES ovarian) [µM] | TGI (UACC-62 melanoma) [µM] | TGI (U251 CNS) | TGI (LOX IMVI melanoma) [µM] | TGI (UO-31 renal) [µM] | TGI (SK-MEL-5 melanoma) [µM] | TGI (HT29 colon) [µM] | TGI (SR leukemia) [µM] | GI50 (U251 CNS) | GI50 (UO-31 renal) | GI50 (NCI/ADR-RES ovarian) [µM] |
| --- | --- | --- | --- | --- | --- | --- | --- | --- | --- | --- | --- | --- | --- |
| CO[C@@H]1O[C@H](C(=O)c2ccccc2)[C@H]2OC(C)(C)O[C@@H]12 | > 100 | > 100 | > 100 | > 100 | > 100 µM | > 100 | > 100 | > 100 | – | > 100 | – | – | – |
| CC(=O)c1cnc2oc3ccc(O)cc3c2c1-c1ccccc1 | > 100 | > 100 | 75 | 70.4 | > 100 µM | > 100 | – | > 100 | > 100 | > 100 | – | – | 19.6 |
| O=C1CSC2=NC3=C(COC/C3=C\c3ccc(Br)cc3)C(c3ccc(Br)cc3)N12 (stereo not drawn) | > 100 | > 100 | > 100 | > 100 | > 100 µM | > 100 | > 100 | > 100 | – | 60.9 | – | – | – |
| C=Cc1ccccc1C1(O)C=CC(OC)(OC)C=C1 | 10.7 | 24.4 | 29.4 | 17.6 | 12.7 µM | – | 19.8 | 26.9 | 11.7 | 7.02 | – | – | – |
| Cc1c2c(OCC3CCCCO3)nn(C)c(=O)c2c(C)n1-c1ccccc1 (stereo not drawn) | 45.4 | 40.6 | 50.7 | 31 | 31.2 µM | 33.7 | 31.2 | 29.1 | 91.4 | – | – | – | – |
| CCCCCCCCCc1nn2c(Cc3ccccc3)nnc2s1 | 54.5 | 32.8 | 32.7 | 37.7 | 36.6 µM | – | 25.8 | 30.1 | – | – | – | – | – |
| CN(C)CCC(=O)/C=C\c1ccccc1 | 32.9 | 30.7 | – | 31.3 | 31.6 µM | 29.6 | 34 | 31.8 | 39.2 | 35.1 | – | – | – |
| CC(=O)OCc1c(O)c2c(c(O)c1COC(C)=O)C(=O)C=CC2=O | 30 | 24.2 | – | 19.3 | 28.5 µM | – | 29 | 28.5 | 31.6 | > 100 | – | – | – |
| N#Cc1nc(NC(=O)c2ccccc2C(=O)O)c(C#N)[nH]1 | > 100 | > 100 | > 100 | > 100 | > 100 µM | > 100 | > 100 | > 100 | > 100 | – | – | – | – |
| COc1ccc(COCC[C@H](C)OC2OC(CO[Si](C)(C)C(C)(C)C)C(OC(=O)CCCN=[N+]=[N-])C(OC(=O)CCCN=[N+]=[N-])C2OC(=O)CCCN=[N+]=[N-])cc1 (stereo partly drawn) | > 100 | > 100 | 60.9 | > 100 | > 100 µM | > 100 | 66.2 | 25.4 | 62.7 | – | – | – | – |
| COC1CC(OC2CCC3(C)C(=CCC4C3C(OC(C)=O)C(OC(=O)CC(C)C)C3(C)C(C(C)=O)CCC43O)C2)OC(C)C1OC1CC(OC)C(OC2CC(OC)C(OC3OC(C)C(OC4OC(CO)C(O)C(O)C4O)C(OC)C3O)C(C)O2)C(C)O1 (stereo not drawn) | > 75 | > 75 | > 75 | > 75 | > 75 µM | > 75 | > 75 | > 75 | > 75 | – | – | – | – |
| CCOP(=O)(/C=C\n1ccc(N)nc1=O)OCC | > 100 | > 100 | > 100 | > 100 | > 100 µM | > 100 | – | > 100 | > 100 | – | – | – | – |
| CN(C)CCNC(=O)c1cccc2nc(-c3ccccc3)oc12 | – | > 100 | 99.6 | > 100 | > 100 µM | > 71.8 | 45.1 | 59.6 | > 100 | – | – | – | – |
| NS(=O)(=O)c1cccc(NC(=S)NC(=O)Nc2ccc(Cl)c(Cl)c2)c1 | > 100 | 32.6 | 36.1 | 26 | 39.6 µM | 33.4 | 37.8 | 30.8 | 86.6 | – | – | – | – |
| c1c2c(cc(-n3nnc4c3CCCCCC4)c1-n1nnc3c1CCCCCC3)CCCCCC2 | 25.4 | 24.4 | – | 26.7 | 22.4 µM | 26.6 | 18.9 | 24.7 | 19.8 | – | – | – | – |
| COC(=O)C1(Cc2ccc3c(c2)CCC3)Cc2ccccc2C1 | > 100 | > 100 | > 100 | > 100 | > 100 µM | > 100 | > 100 | – | 65 | > 100 | – | – | – |
